Legend:
[1] = Chance observation of local anesthetic effect upon contact with mucous membranes; type: in vivo
[2] = molecular target: T1, human 5-HT2C receptor (Homo sapiens, UniProt P28335); test: Gq-mediated calcium flux assay, Flp-In 293 T-Rex inducible cells (agonist and antagonist mode); type: cell-based
T1 construct: expressed in transfected cells

[3] = molecular target: T2, human Nav1.1 and Navβ1 (Homo sapiens, UniProt P35498); test: Manual whole-cell patch clamp sodium current recording, HEK cells expressing hNav1.1 and Navβ1; type: cell-based; settings: for reduction in Nav1.1 peak INa: after 3.9 minutes of perfusion
Description: Cell lines: Human Embryonic Kidney (HEK) 293 cells stably expressing human VGSC a subunit Nav1.1 (GenBank accession number NP_008851.3) were a gift from Dr. Massimo Mantegazza. Human VGSC β1 subunit GenBank accession number NP_001028.1) cDNA was transfected into this line to generate a second, stable line. Cells were cultured in Dulbecco's Modified Eagle Medium containing (4.5 g/L D-glucose, L-glutamine, 110 mg/L sodium pyruvate, 200 μg/mL G418, 100 U/mL penicillin/streptomycin). All cells were maintained in an incubator at 37° C. with 5% CO2.
Manual Sodium Current Recording: Sodium current (INa) was measured at room temperature using the manual whole-cell patch clamp technique with previously described electrophysiological methods (Chen et al., J Biol Chem., 2012; 287 (46): 39061-39069). Cells were plated on 12 mm diameter clear glass poly-D-lysine coated coverslips (Neuvitro) and used for electrophysiological recordings within 48 hours after plating. Cells were identified with an AIR upright confocal microscope (Nikon). Micropipettes were obtained from 1.5 mm outer diameter capillary glass tubing (Harvard Apparatus) using a P-97 horizontal puller (Sutter Instrument Co.). Micropipettes were then polished using a MF-830 micro forge (Narishige) to obtain a resistance between 2.0 to 5.0 M (2. The intracellular solution contained the following (in mM): 1 NaCl, 125 N-methyl-D-glucamine, 2 MgCl2, 10 EGTA, 40 HEPES, 5 phosphocreatine-tris, 2 Mg-ATP, 0.2 Na2-GTP, 0.1 leupeptin, 270-275 mOsm, pH 7.2 with H2SO4. Extracellular solution contained the following (in mM): 120 NaCl, 1 BaCl2, 2 MgCl2, 0.2 CdCl2, 1 CaCl2), 20 sucrose, 10 glucose, 10 HEPES, 10 tetraethylammonium chloride, 300-305 mOsm, pH 7.35 with NaOH. Signals were amplified using a Multiclamp 700B amplifier (Molecular Devices). Data were acquired with a Digidata 1440A interface (Molecular Devices) and analyzed using pClamp10 offline. Pipette and whole-cell capacitance were fully compensated, and series resistance was predicted and compensated at 50%. Signals were low pass-filtered at 10 kHz, and data were sampled at 20 kHz. Residual linear capacity and leak currents were eliminated using online P/4 subtraction. Gravity-powered perfusion of XOB was used in all manual patch clamp experiments with a flow rate of 2-3 mL/min. All manual whole-cell INa recorded under XOB conditions was conducted after 3.9 minutes of perfusion unless indicated otherwise.

[4] = molecular target: T2, human Nav1.1 and Navβ1; test: cell-based

T1 sequence (P28335 33-458): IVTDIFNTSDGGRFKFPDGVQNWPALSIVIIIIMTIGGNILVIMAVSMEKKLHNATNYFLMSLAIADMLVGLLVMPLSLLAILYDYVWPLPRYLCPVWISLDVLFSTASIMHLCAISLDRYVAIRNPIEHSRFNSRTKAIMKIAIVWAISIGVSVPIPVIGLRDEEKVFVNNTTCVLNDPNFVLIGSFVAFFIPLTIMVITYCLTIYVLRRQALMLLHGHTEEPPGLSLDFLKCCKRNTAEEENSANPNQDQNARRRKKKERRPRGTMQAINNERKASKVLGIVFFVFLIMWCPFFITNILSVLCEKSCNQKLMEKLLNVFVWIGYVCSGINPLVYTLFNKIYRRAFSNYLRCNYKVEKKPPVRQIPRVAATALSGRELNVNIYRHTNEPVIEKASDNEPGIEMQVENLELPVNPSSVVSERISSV

## COc1cc(CCNCCCCCCOCCCCc2ccccc2)c(OC)cc1Br [XOB, N-(4-bromo-2,5-dimethoxyphenethyl)-6-(4-phenylbutoxy)hexan-1-amine]
[1]
  local anesthetic effect: profound and long-lasting local anesthetic effect
[2]; agonist mode, up to 10 μM
  agonist activity at 5-HT2C: little to no measurable agonist activity
[2]; antagonist mode, concentrations up to 10 μM
  inhibition of 5-HT-mediated calcium flux at 5-HT2C: < 50%
[3]; 1 μM
  reduction in Nav1.1 peak INa: 35.3%
[3]; 1 μM, time 0 s, step −120 mV to 0 mV
  % Initial Peak INa: 100%
[3]; 1 μM, time 31.2 s
  % Initial Peak INa: 100.6%
[3]; 1 μM, time 62.4 s
  % Initial Peak INa: 93.0%
[3]; 1 μM, time 93.6 s
  % Initial Peak INa: 88.8%
[3]; 1 μM, time 124.8 s
  % Initial Peak INa: 87.0%
[3]; 1 μM, time 150.8 s
  % Initial Peak INa: 77.7%
[3]; 1 μM, time 182 s
  % Initial Peak INa: 75.1%
[3]; 1 μM, time 213.2 s
  % Initial Peak INa: 70.9%
[3]; 1 μM, time 234 s
  % Initial Peak INa: 64.7%
[3]; 5 μM
  reduction in Nav1.1 peak INa: 95.7%
[3]; 5 μM, time 0 s, step −120 mV to 0 mV
  % Initial Peak INa: 100%
[3]; 5 μM, time 31.2 s
  % Initial Peak INa: 95.4%
[3]; 5 μM, time 62.4 s
  % Initial Peak INa: 40.0%
[3]; 5 μM, time 93.6 s
  % Initial Peak INa: 23.7%
[3]; 5 μM, time 124.8 s
  % Initial Peak INa: 11.2%
[3]; 5 μM, time 150.8 s
  % Initial Peak INa: 9.3%
[3]; 5 μM, time 182 s
  % Initial Peak INa: 5.4%
[3]; 5 μM, time 213.2 s
  % Initial Peak INa: 6.4%
[3]; 5 μM, time 234 s
  % Initial Peak INa: 4.3%
[3]; 10 μM
  reduction in Nav1.1 peak INa: 98.6%
[3]; 10 μM, time 0 s, step −120 mV to 0 mV
  % Initial Peak INa: 100%
[3]; 10 μM, time 31.2 s
  % Initial Peak INa: 97.1%
[3]; 10 μM, time 62.4 s
  % Initial Peak INa: 94.8%
[3]; 10 μM, time 93.6 s
  % Initial Peak INa: 73.7%
[3]; 10 μM, time 124.8 s
  % Initial Peak INa: 28.5%
[3]; 10 μM, time 150.8 s
  % Initial Peak INa: 8.7%
[3]; 10 μM, time 182 s
  % Initial Peak INa: 2.9%
[3]; 10 μM, time 213.2 s
  % Initial Peak INa: 2.5%
[3]; 10 μM, time 234 s
  % Initial Peak INa: 1.4%
[4]
  Bottom of concentration response curve (normalized peak INa inhibition): 0.02
  Hill Slope of concentration response curve on peak INa: 1.45
  Top of concentration response curve (normalized peak INa inhibition): 0.88
  effect on voltage-dependence of sodium conductance: no effect was observed
[4]; 0.1 nM, peak protocol
  Normalized Peak INa Inhibition: −0.077 ± 0.08
  Peak INa Density: −429.6 ± 50.7 pA/pF
[4]; 1 nM, I-V curve
  Peak INa Density @ −20 mV: −395.9 ± 56.0 pA/pF
[4]; 1 nM, peak protocol
  Normalized Peak INa Inhibition: 0.015 ± 0.03
